Results reported in PubChem BioAssay AID1918940 (Molecular Pharmacology Branch, DTP, NCI, 2023).
Where “and” joins values, the source holds several entries; their conditions need not be identical. Identical values can stand only once.

Test system: NCI-H211 complex spheroid viability
Experiment: Anticancer human tumor NCI-H211 cell line growth inhibition [LSD1];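 note: luminescent viability read after seven days of drug exposure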;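 for viability, T/C: 100% = DMSO vehicle control viability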
Details: for viability, T/C: stronger effect = lower value
How it was run: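 Multicellular complex spheroids of tumor cells with human endothelial cells (HUVEC) and mesenchymal stem cells; the LSD1 inhibitor iadademstat was combined with standard-of-care or investigational agents. Top concentration at or near clinical Cmax, half-log dilutions; final DMSO ≤0.25%.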

[1] = curve of first compound, second compound 0.1 µM
[2] = curve of first compound, second compound 0.316 µM
[3] = curve of first compound, second compound 1 µM
[4] = curve of first compound, second compound 3.16 µM
[5] = curve of first compound, second compound 10 µM
[6] = second compound 0.1 µM, first compound 0.000316 µM
[7] = second compound 0.1 µM, first compound 0.001 µM
[8] = second compound 0.1 µM, first compound 0.00316 µM
[9] = second compound 0.1 µM, first compound 0.01 µM
[10] = second compound 0.1 µM, first compound 0.0316 µM
[11] = second compound 0.1 µM, first compound 0.1 µM
[12] = second compound 0.316 µM, first compound 0.000316 µM
[13] = second compound 0.316 µM, first compound 0.001 µM
[14] = second compound 0.316 µM, first compound 0.00316 µM
[15] = second compound 0.316 µM, first compound 0.01 µM
[16] = second compound 0.316 µM, first compound 0.0316 µM
[17] = second compound 0.316 µM, first compound 0.1 µM
[18] = second compound 1 µM, first compound 0.000316 µM
[19] = second compound 1 µM, first compound 0.001 µM
[20] = second compound 1 µM, first compound 0.00316 µM
[21] = second compound 1 µM, first compound 0.01 µM
[22] = second compound 1 µM, first compound 0.0316 µM
[23] = second compound 1 µM, first compound 0.1 µM
[24] = second compound 3.16 µM, first compound 0.000316 µM
[25] = second compound 3.16 µM, first compound 0.001 µM
[26] = second compound 3.16 µM, first compound 0.00316 µM
[27] = second compound 3.16 µM, first compound 0.01 µM
[28] = second compound 3.16 µM, first compound 0.0316 µM
[29] = second compound 3.16 µM, first compound 0.1 µM
[30] = second compound 10 µM, first compound 0.000316 µM
[31] = second compound 10 µM, first compound 0.001 µM
[32] = second compound 10 µM, first compound 0.00316 µM
[33] = second compound 10 µM, first compound 0.01 µM
[34] = second compound 10 µM, first compound 0.0316 µM
[35] = second compound 10 µM, first compound 0.1 µM
[36] = second compound 0.1 µM, first compound 0.316 µM
[37] = second compound 0.1 µM, first compound 1 µM
[38] = second compound 0.316 µM, first compound 0.316 µM
[39] = second compound 0.316 µM, first compound 1 µM
[40] = second compound 1 µM, first compound 0.316 µM
[41] = second compound 1 µM, first compound 1 µM
[42] = second compound 3.16 µM, first compound 0.316 µM
[43] = second compound 3.16 µM, first compound 1 µM
[44] = second compound 10 µM, first compound 0.316 µM
[45] = second compound 10 µM, first compound 1 µM

Cn1ncnc1C1c2n[nH]c(=O)c3cc(F)cc(c23)NC1c1ccc(F)cc1 (configuration not stated) + NC1CCC(NC2CC2c2ccccc2)CC1
IC50 [1]: 1.91 nM | IC50 [2]: 1.68 nM | IC50 [3]: 1.56 nM | IC50 [4]: 1.24 nM | IC50 [5]: < 0.316 nM | viability, T/C [6]: 69.9% | viability, T/C [7]: 61.4% | viability, T/C [8]: 39.8% | viability, T/C [9]: 4.59% | viability, T/C [10]: 1.93% | viability, T/C [11]: 2.12% | viability, T/C [12]: 67% | viability, T/C [13]: 66.3% | viability, T/C [14]: 30.7% | viability, T/C [15]: 4.65% | viability, T/C [16]: 2.59% | viability, T/C [17]: 2.43% | viability, T/C [18]: 59% | viability, T/C [19]: 59.9% | viability, T/C [20]: 35.7% | viability, T/C [21]: 4.84% | viability, T/C [22]: 2.31% | viability, T/C [23]: 2.49% | viability, T/C [24]: 54.7% | viability, T/C [25]: 53.5% | viability, T/C [26]: 33.7% | viability, T/C [27]: 3.84% | viability, T/C [28]: 2.11% | viability, T/C [29]: 2.23% | viability, T/C [30]: 33.6% | viability, T/C [31]: 31.5% | viability, T/C [32]: 16% | viability, T/C [33]: 1.98% | viability, T/C [34]: 0.92% | viability, T/C [35]: 1.15%

Nc1ncn(C2CC(O)C(CO)O2)c(=O)n1 (configuration not stated) + NC1CCC(NC2CC2c2ccccc2)CC1
IC50 [1]: < 3.16 nM | IC50 [2]: < 3.16 nM | IC50 [3]: < 3.16 nM | IC50 [4]: < 3.16 nM | IC50 [5]: < 3.16 nM | viability, T/C [8]: 26.7% | viability, T/C [9]: 17.8% | viability, T/C [10]: 7.44% | viability, T/C [11]: 3.11% | viability, T/C [36]: 1.96% | viability, T/C [37]: 1.81% | viability, T/C [14]: 35% | viability, T/C [15]: 16% | viability, T/C [16]: 9.7% | viability, T/C [17]: 2.44% | viability, T/C [38]: 1.9% | viability, T/C [39]: 1.78% | viability, T/C [20]: 33% | viability, T/C [21]: 16.2% | viability, T/C [22]: 7.52% | viability, T/C [23]: 3.4% | viability, T/C [40]: 1.88% | viability, T/C [41]: 1.32% | viability, T/C [26]: 29.3% | viability, T/C [27]: 17.8% | viability, T/C [28]: 6.93% | viability, T/C [29]: 2.47% | viability, T/C [42]: 1.82% | viability, T/C [43]: 1.39% | viability, T/C [32]: 11.7% | viability, T/C [33]: 5.2% | viability, T/C [34]: 2.56% | viability, T/C [35]: 0.89% | viability, T/C [44]: 0.77% | viability, T/C [45]: 0.61%

COc1cc(Nc2ncc3c(n2)-c2ccc(Cl)cc2C(c2c(F)cccc2OC)=NC3)ccc1C(=O)O + NC1CC1c1ccc(-c2cccc(O)c2)cc1
IC50 [1]: < 3.16 nM | IC50 [2]: < 3.16 nM | IC50 [3]: < 3.16 nM | IC50 [4]: < 3.16 nM | IC50 [5]: < 3.16 nM | viability, T/C [8]: 28.2% | viability, T/C [9]: 5.72% | viability, T/C [10]: 4.04% | viability, T/C [11]: 3.29% | viability, T/C [36]: 4.66% | viability, T/C [37]: 3.94% | viability, T/C [14]: 37.7% | viability, T/C [15]: 6.96% | viability, T/C [16]: 3.41% | viability, T/C [17]: 4.23% | viability, T/C [38]: 4.53% | viability, T/C [39]: 3.46% | viability, T/C [20]: 33.4% | viability, T/C [21]: 6.82% | viability, T/C [22]: 3.89% | viability, T/C [23]: 4.49% | viability, T/C [40]: 3.81% | viability, T/C [41]: 3.95% | viability, T/C [26]: 21.8% | viability, T/C [27]: 7.56% | viability, T/C [28]: 4.05% | viability, T/C [29]: 3.76% | viability, T/C [42]: 3.87% | viability, T/C [43]: 3.54% | viability, T/C [32]: 21.8% | viability, T/C [33]: 6.88% | viability, T/C [34]: 4.59% | viability, T/C [35]: 4.93% | viability, T/C [44]: 5.57% | viability, T/C [45]: 4.21%

COc1cc(C2c3cc4c(cc3C(OC3OC5COC(C)OC5C(O)C3O)C3COC(=O)C23)OCO4)cc(OC)c1O (configuration not stated) + NC1CCC(NC2CC2c2ccccc2)CC1
IC50 [1]: 9.89 nM | IC50 [2]: 9.92 nM | IC50 [3]: < 9.49 nM | IC50 [4]: < 9.49 nM | IC50 [5]: < 9.49 nM | viability, T/C (second compound 0.1 µM, first compound 0.00949 µM): 51.4% | viability, T/C (second compound 0.1 µM, first compound 0.03 µM): 14.5% | viability, T/C (second compound 0.1 µM, first compound 0.0949 µM): 2.21% | viability, T/C (second compound 0.1 µM, first compound 0.3 µM): 5.34% | viability, T/C (second compound 0.1 µM, first compound 0.949 µM): 1.9% | viability, T/C (second compound 0.1 µM, first compound 3 µM): 2.19% | viability, T/C (second compound 0.316 µM, first compound 0.00949 µM): 51.7% | viability, T/C (second compound 0.316 µM, first compound 0.03 µM): 12.7% | viability, T/C (second compound 0.316 µM, first compound 0.0949 µM): 1.66% | viability, T/C (second compound 0.316 µM, first compound 0.3 µM): 2.34% | viability, T/C (second compound 0.316 µM, first compound 0.949 µM): 2.35% | viability, T/C (second compound 0.316 µM, first compound 3 µM): 2.14% | viability, T/C (second compound 1 µM, first compound 0.00949 µM): 46.1% | viability, T/C (second compound 1 µM, first compound 0.03 µM): 11.6% | viability, T/C (second compound 1 µM, first compound 0.0949 µM): 2.2% | viability, T/C (second compound 1 µM, first compound 0.3 µM): 2.36% | viability, T/C (second compound 1 µM, first compound 0.949 µM): 2.33% | viability, T/C (second compound 1 µM, first compound 3 µM): 2.08% | viability, T/C (second compound 3.16 µM, first compound 0.00949 µM): 42.2% | viability, T/C (second compound 3.16 µM, first compound 0.03 µM): 10.5% | viability, T/C (second compound 3.16 µM, first compound 0.0949 µM): 2.02% | viability, T/C (second compound 3.16 µM, first compound 0.3 µM): 2.37% | viability, T/C (second compound 3.16 µM, first compound 0.949 µM): 1.62% | viability, T/C (second compound 3.16 µM, first compound 3 µM): 1.85% | viability, T/C (second compound 10 µM, first compound 0.00949 µM): 18.9% | viability, T/C (second compound 10 µM, first compound 0.03 µM): 4.24% | viability, T/C (second compound 10 µM, first compound 0.0949 µM): 0.87% | viability, T/C (second compound 10 µM, first compound 0.3 µM): 0.66% | viability, T/C (second compound 10 µM, first compound 0.949 µM): 0.79% | viability, T/C (second compound 10 µM, first compound 3 µM): 0.69%

CC(C)CC(NC(=O)C(Cc1ccccc1)NC(=O)c1cnccn1)B(O)O (configuration not stated)
viability, T/C (compound 0.000316 µM): 109% and 100% | viability, T/C (compound 0.001 µM): 96.9% and 86.8% | viability, T/C (compound 0.00316 µM): 25.4% and 29.6% | viability, T/C (compound 0.01 µM): 6.26% and 1.54% | viability, T/C (compound 0.0316 µM): 0.16% and 0.2% | viability, T/C (compound 0.1 µM): 0.16% and 0.32% | IC50 (curve of compound): 2.13 nM and 2.1 nM

CC(C)CC(NC(=O)C(Cc1ccccc1)NC(=O)c1cnccn1)B(O)O (configuration not stated) + NC1CC1c1ccc(-c2cccc(O)c2)cc1
IC50 [1]: 3.45 nM | IC50 [2]: 3.26 nM | IC50 [3]: 2.99 nM | IC50 [4]: 3.46 nM | IC50 [5]: 1.78 nM | viability, T/C [6]: 112% | viability, T/C [7]: 108% | viability, T/C [8]: 54.1% | viability, T/C [9]: 1.17% | viability, T/C [10]: 0.06% | viability, T/C [11]: 0.19% | viability, T/C [12]: 107% | viability, T/C [13]: 119% | viability, T/C [14]: 51.4% | viability, T/C [15]: 1.97% | viability, T/C [16]: 0.17% | viability, T/C [17]: 0.17% | viability, T/C [18]: 83.4% | viability, T/C [19]: 104% | viability, T/C [20]: 47.8% | viability, T/C [21]: 0.86% | viability, T/C [22]: 0.09% | viability, T/C [23]: 0.18% | viability, T/C [24]: 81.2% | viability, T/C [25]: 102% | viability, T/C [26]: 54.2% | viability, T/C [27]: 1.3% | viability, T/C [28]: 0.09% | viability, T/C [29]: 0.19% | viability, T/C [30]: 70.8% | viability, T/C [31]: 74.1% | viability, T/C [32]: 27.7% | viability, T/C [33]: 0.47% | viability, T/C [34]: 0.18% | viability, T/C [35]: 0.27%
